Data set [1] has as its system PK1 neuroblastoma cells exposed to TPrP. Put plainly: cells. The conditions noted are these: Neuroblastoma cell, 96 h, read-out: TPrP EC50. Format: cell-based.
Data set [2] can be described thus: Microsomal stability assay. The conditions noted are these: 1 mg/ml human hepatic microsomes, 37° C., half-life by LC-MS/MS; yes = stability ≥15 minutes. Format: in vitro ADME. As to the method: The metabolic stability of some test compounds was determined in hepatic human and mouse microsomes. The compound was incubated with 1 mg/ml human or mouse hepatic microsomes at 37° C. with continuous shaking. Aliquots were removed at various time points between 5 minutes and 2 hours and acetonitrile was added to quench the reactions and precipitate the proteins. Samples were then centrifuged through 0.45 μm filter plates and half-lives were determined by LC-MS/MS.

The structures appear in SMILES notation. A value given as a limit tells only on which side of the number the result lay.

Consider `NS(=O)(=O)c1ccc(Nc2nc(-c3ccncc3)c(CO)s2)cc1` [SR-28550, 4-((5-(Hydroxymethyl)-4-(pyridin-4-yl)thiazol-2-yl)amino)benzenesulfonamide], for which the EC50 in data set [1] was 70 nM. The “Stabilty in human microsomes ≥ 15 minutes” value (from here on “Stabilty”) in data set [2] is reported as “yes”.

In the case of `Cc1cc(-c2csc(Nc3ccc(S(N)(=O)=O)cc3)n2)ccn1` [SR-33124, 4-((4-(2-Methylpyridin-4-yl)thiazol-2-yl)amino)benzenesulfonamide], the EC50 in data set [1] was determined as 30 nM. Moreover, in data set [2], the “Stabilty” value is “yes”.

For the compound `NS(=O)(=O)c1ccc(Nc2nc(-c3ccnc(Cl)c3)cs2)cc1` [SR-33125, 4-((4-(2-Chloropyridin-4-yl)thiazol-2-yl)amino)benzenesulfonamide], the EC50 in data set [1] was 35 nM. Moreover, in data set [2], the “Stabilty” value is “yes”.

On to `Cc1cc(-c2csc(Nc3ccc(S(=O)(=O)O)cc3)n2)ccn1` [SR-33126, 4-((4-(2-Methylpyridin-4-yl)thiazol-2-Yl)amino)benzenesulfonic acid], for which the EC50 in data set [1] worked out at 25 nM. For the same compound, the “Stabilty” value in data set [2] is on record as “yes”.

For `Cc1cc(-c2csc(Nc3ccc(S(C)(=O)=O)c(Cl)c3)n2)ccn1` [SR-33127, N-(3-chloro-4-(methylsulfonyl)phenyl)-4-(2-methylpyridin-4-yl)thiazol-2-amine], the concentration for a half-maximal effect (EC50) in data set [1] was 25 nM. Also, the “Stabilty” value in data set [2] was “yes”.

Regarding `O=S(=O)(O)c1ccc(Nc2nc(-c3ccnc(Cl)c3)cs2)cc1` [SR-33128, 4-((4-(2-Chloropyridin-4-yl)thiazol-2-yl)amino)benzenesulfonic acid], in data set [1], the EC50 is above 500 nM. In data set [2], the “Stabilty” value was “yes”.

For `CS(=O)(=O)c1ccc(Nc2nc(-c3ccnc(Cl)c3)cs2)cc1Cl` [SR-33129, N-(3-chloro-4-(methylsulfonyl)phenyl)-4-(2-chloropyridin-4-yl)thiazol-2-amine], the EC50 in data set [1] was determined as 65 nM. Moreover, in data set [2], the “Stabilty” value is on record as “yes”.

In the case of `Cc1cc(-c2nc(Nc3ccc(S(N)(=O)=O)cc3)sc2CO)ccn1` [SR-33524, 4-((5-(Hydroxmethyl)-4-(2-methylpyridin-4-yl)thiazol-2-yl)amino)benzenesulfonamide], the concentration for a half-maximal effect (EC50) in data set [1] amounted to 60 nM. Also, in data set [2], the “Stabilty” value is listed as “yes”.

As to `NS(=O)(=O)c1ccc(Nc2nc(-c3ccnc(Cl)c3)c(CO)s2)cc1` [SR-33525, 4-((4-(2-Chloropyridin-4-yl)-5-(hydroxymethyl)thiazol-2-yl)amino)benzenesulfonamide], the EC50 in data set [1] was 65 nM. Moreover, the “Stabilty” value in data set [2] is on record as “yes”.

For the compound `Cc1cc(-c2nc(Nc3ccc(S(=O)(=O)O)cc3)sc2CO)ccn1` [SR-33526, 4-((5-(Hydroxymethyl)-4-(2-methylpyridin-4-yl)thiazol-2-yl)amino)benzenesulfonic acid], the EC50 in data set [1] came out at 150 nM. The “Stabilty” value in data set [2] was “yes”.

`O=S(=O)(O)c1ccc(Nc2nc(-c3ccnc(Cl)c3)c(CO)s2)cc1` [SR-33527, 4-((4-(2-Chloropyridin-4-yl)-5-(hydroxymethyl)thiazol-2-yl)amino)benzenesulfonic acid]: the EC50 in data set [1] is 160 nM. The “Stabilty” value in data set [2] is recorded as “yes”.

`Cc1cc(-c2nc(Nc3ccc(S(C)(=O)=O)c(Cl)c3)sc2CO)ccn1` [SR-33528, (2-((3-Chloro-4-(methylsulfonyl)phenyl)amino)-4-(2-methylpyridin-4-yl)thiazol-5-yl)methanol]: in data set [1], the EC50 was 80 nM. Moreover, in data set [2], the “Stabilty” value is listed as “yes”.

As for `CS(=O)(=O)c1ccc(Nc2nc(-c3ccnc(Cl)c3)c(CO)s2)cc1Cl` [SR-33529, (2-((3-Chloro-4-(methylsulfonyl)phenyl)amino)-4-(2-chloropyridin-4-yl)thiazol-5-yl)methanol], the EC50 in data set [1] is 80 nM. Moreover, the “Stabilty” value in data set [2] is “yes”.

Turning to `Cc1cc(-c2csc(Nc3ccc(S(=O)(=O)O)cc3)n2)cc(C)n1` [SR-33784, 4-((4-(2,6-Dimethylpyridin-4-yl)thiazol-2-yl)amino)benzenesulfonic acid], the 50% effective concentration (EC50) in data set [1] was 25 nM. Besides, the “Stabilty” value in data set [2] is on record as “yes”.

As to `O=S(=O)(O)c1ccc(Nc2nc(-c3ccncc3)cs2)cc1` [SR-33785, 4-((4-(Pyridin-4-yl)thiazol-2-yl)amino)benzenesulfonic acid], in data set [1], the EC50 was 40 nM. Besides, in data set [2], the “Stabilty” value is listed as “yes”.

As to `Cc1cc(-c2csc(Nc3ccc(S(C)(=O)=O)cc3)n2)cc(C)n1` [SR-33786, 4-(2,6-Dimethylpyridin-4-yl)-N-(4-(methylsulfonyl)phenyl)thiazol-2-amine], the EC50 in data set [1] turned out to be 20 nM. The “Stabilty” value in data set [2] is recorded as “yes”.

For the compound `COc1cc(-c2csc(Nc3ccc(S(C)(=O)=O)c(Cl)c3)n2)cc(OC)n1` [SR-33787, N-(3-chloro-4-(methylsulfonyl)phenyl)-4-(2,6-dimethoxypyridin-4-yl)thiazol-2-amine], the EC50 in data set [1] stood at 80 nM. In data set [2], the “Stabilty” value was “yes”.

On to `CS(=O)(=O)c1ccc(Nc2nc(-c3ccncc3)cs2)cc1` [SR-33788, N-(4-(methylsulfonyl)phenyl)-4-(pyridin-4-yl)thiazol-2-amine], for which the EC50 in data set [1] was 80 nM. Further, the “Stabilty” value in data set [2] is reported as “yes”.

`COc1cc(-c2csc(Nc3ccc(S(C)(=O)=O)cc3)n2)cc(OC)n1` [SR-33789, 4-(2,6-Dimethoxypyridin-4-yl)-N-(4-(methylsulfonyl)phenyl)thiazol-2-amine]: the half-maximal effective concentration (EC50) in data set [1] was 300 nM. The “Stabilty” value in data set [2] is reported as “yes”.

As for `COc1cc(-c2csc(Nc3ccc(S(N)(=O)=O)cc3)n2)cc(OC)n1` [SR-33790, 4-((4-(2,6-Dimethoxypyridin-4-yl)thiazol-2-yl)amino)benzenesulfonamide], the EC50 in data set [1] came out at 35 nM. Further, the “Stabilty” value in data set [2] is “yes”.

Take `Cc1cc(-c2csc(Nc3ccc(S(N)(=O)=O)cc3)n2)cc(C)n1` [SR-33791, 4-((4-(2,6-Dimethylpyridin-4-yl)thiazol-2-yl)amino)benzenesulfonamide]: the concentration giving a half-maximal response (EC50) in data set [1] came to 25 nM. Also, the “Stabilty” value in data set [2] is reported as “yes”.

With `Cc1cc(-c2csc(Nc3ccc(S(C)(=O)=O)cc3)n2)ccn1` [SR-33793, 4-(2-Methylpyridin-4-yl)-N-(4-(methylsulfonyl)phenyl)thiazol-2-amine], the EC50 in data set [1] was 20 nM. Moreover, the “Stabilty” value in data set [2] is listed as “yes”.

Regarding `Cc1cc(-c2nc(Nc3ccc(S(C)(=O)=O)cc3)sc2CO)cc(C)n1` [SR-33794, (4-(2,6-Dimethylpyridin-4-yl)-2-((4-(methylsulfonyl)phenyl)amino)thiazol-5-yl)methanol], the EC50 in data set [1] worked out at 70 nM. In data set [2], the “Stabilty” value is reported as “yes”.

On to `CS(=O)(=O)c1ccc(Nc2nc(-c3ccncc3)c(CO)s2)cc1` [SR-33795, (2-((4-(Methylsulfonyl)phenyl)amino)-4-(pyridin-4-yl)thiazol-5-yl)methanol], for which, in data set [1], the half-maximal effective concentration (EC50) was found to be 350 nM. For the same compound, the “Stabilty” value in data set [2] was “yes”.

As for `COc1cc(-c2nc(Nc3ccc(S(C)(=O)=O)cc3)sc2CO)cc(OC)n1` [SR-33796, (4-(2,6-Dimethoxypyridin-4-yl)-2-((4-(methylsulfonyl)phenyl)amino)thiazol-5-yl)methanol], the EC50 in data set [1] is 450 nM. The “Stabilty” value in data set [2] was “yes”.

Regarding `COc1cc(-c2nc(Nc3ccc(S(N)(=O)=O)cc3)sc2CO)cc(OC)n1` [SR-33797, 4-((4-(2,6-Dimethoxypyridin-4-yl)-5-(hydroxymethyl)thiazol-2-yl)amino)benzenesulfonamide], in data set [1], the EC50 was 45 nM. Besides, in data set [2], the “Stabilty” value was “yes”.

As for `Cc1cc(-c2nc(Nc3ccc(S(N)(=O)=O)cc3)sc2CO)cc(C)n1` [SR-33798, 4-((4-(2,6-Dimethylpyridin-4-yl)-5-(hydroxymethyl)thiazol-2-yl)amino)benzenesulfonamide], the EC50 in data set [1] came to 20 nM. Further, the “Stabilty” value in data set [2] is given as “yes”.

With `CCOCc1sc(Nc2ccc(S(C)(=O)=O)cc2)nc1-c1ccnc(C)c1` [SR-35365, 5-(Ethoxymethyl)-4-(2-methylpyridin-4-yl)-N-(4-(methylsulfonyl)phenyl)thiazol-2-amine], the EC50 in data set [1] was found to be 450 nM.

As to `Cc1cc(-c2nc(Nc3ccc(S(C)(=O)=O)cc3)sc2C=O)ccn1` [SR-35367, 4-(2-Methylpyridin-4-yl)-2-((4-(methylsulfonyl)phenyl)amino)thiazole-5-carbaldehyde], the EC50 in data set [1] was determined as 230 nM.

With `CCN(c1ccc(S(C)(=O)=O)cc1)c1nc(-c2ccnc(C)c2)cs1` [SR-35368, N-ethyl-4-(2-methylpyridin-4-yl)-N-(4-(methylsulfonyl)phenyl)thiazol-2-amine], in data set [1], the EC50 was 230 nM.

As for `Cc1cc(-c2nc(Nc3ccc(S(C)(=O)=O)cc3)sc2COc2ccccc2)ccn1` [SR-35369, 4-(2-Methylpyridin-4-yl)-N-(4-(methylsulfonyl)phenyl)-5-(phenoxymethyl)thiazol-2-amine], the EC50 in data set [1] was above 500 nM.

With `Cc1cc(-c2nc(Nc3ccc(S(C)(=O)=O)cc3)sc2COc2ccc(F)cc2)ccn1` [SR-35370, 5-((4-Fluorophenoxy)methyl)-4-(2-methylpyridin-4-yl)-N-(4-(methylsulfonyl)phenyl)thiazol-2-amine], the EC50 in data set [1] was above 500 nM.

Consider `Cc1cc(-c2nc(Nc3ccc(S(C)(=O)=O)cc3)sc2CSc2ccccc2)ccn1` [SR-35371, 4-(2-Methylpyridin-4-yl)-N-(4-(methylsulfonyl)phenyl)-5-((phenylthio)methyl)thiazol-2-amine], for which, in data set [1], the concentration giving a half-maximal response (EC50) was above 500 nM.

As to `CNS(=O)(=O)c1ccc(-c2csc(Nc3ccc(S(C)(=O)=O)c(C(F)(F)F)c3)n2)cc1` [SR-35734, N-methyl-4-(2-((4-(methylsulfonyl)-3-(trifluoromethyl)phenyl)amino)thiazol-4-yl)benzenesulfonamide], the EC50 in data set [1] was 3 nM.

The values above are taken from patent US20240150338A1, “COMPOUNDS AND USE THEREOF FOR TREATMENT OF NEURODEGENERATIVE, DEGENERATIVE AND METABOLIC DISORDERS” (University of Florida Research Foundation, Incorporated, priority 2021, published 2024).
